Source: patent US20100233676A1, “HIGH AFFINITY FLUOROCHROME BINDING PEPTIDES” (priority 2007, published 2010)

What was measured:
HT1080 cells = experiment: In vitro cell labeling of HT1080 cells, fluorescence plate reader; format: cell-based; details: free (unconjugated) peptide
Procedure: HT1080 […] cells (20,000 cells/well) were washed 3× with PBS to remove media then incubated with 0.1 mL of […] of Ac-IQSPHFF-NHS peptide or vehicle (PBS with 1% DMSO) for 1 hour at 37° C. Subsequent to incubation, cells were washed then incubated for 1 hour at 37° C. in the dark with 1 nmole of GH680 or 1 nmole of GH680+5 nmoles of underivatized peptide (competition experiment). Cells were then washed 6× with PBS+0.1% Tween 20 and analyzed via fluorescence plate reader GeminiXS (Molecular Devices). The IQSPHFF peptide sequence was covalently conjugated onto HT1080 cells and incubated with 5 nM of NIRF (VT680). Cells conjugated with IQSPHFF bound VT680>120-fold better than cells not conjugated with IQSPHFF. In addition, free (unconjugated) IQSPHFF peptide was able to compete for 98% of the binding of fluorochrome to peptide labeled cells, indicating the specificity of the interaction. FIG. 8A.

[1] = test system: IQSPHFF peptide (SEQ ID NO:1), displayed on phage; experiment: Binding of IQSPHFF phage to BSA-conjugated fluorochromes; details: FIG. 3A
Procedure: FIG. 3 presents exemplary data showing molecular modeling of IQSPHFF binding to VT-680. FIG. 3A. Binding affinities of IQSPHFF phage to BSA-conjugated fluorochromes via ELISA. FIG. 3B. Schematic π-π bonding between the phenylalanines of the peptide and the indole or benzoindole subunit of VT680 FIG. 3C. […] FIG. 3D. Illustrating a possible interaction of the peptide hydrophobic isoleucine and the hydrophobic alkene of the fluorochrome.
The affinity of IQSPHFF was determined using […] for different commercially available benzindol fluorochromes (Cy 3.5, Cy 5.5, VT680 and AF750). […] FIG. 3A.
The N-hydroxysuccinimide (NHS) ester of the benzindol fluorochromes VT680, GH680, Cy3.5, Cy5.5 or AF750 (1 mg) were conjugated to bovine serum albumin (BSA 100 mg/mL; 0.3 M NaCO3 buffer, pH 8.6) under reaction conditions of approximately tenfold molar excess VT680 to BSA. BSA-fluorochrome conjugate or BSA was adsorbed (5.0 μg/0.1 ml well, w/vol) overnight to wells of a Nunc Maxisorp plage (Nunc, Rochester, N.Y.). Supernatants were discarded and washed twice with PBS and blocked (5% BSA, 0.3 M NaCO3, pH 8.6, room temperature, 45 min). […]
Readout was depicted as the mean difference between absorbances in the BSA-fluorochrome containing wells and the BSA-only (negative control) wells. […]

| Substance | competition of fluorochrome binding to peptide labeled cells by free peptide (HT1080 cells) [%] | affinity of IQSPHFF, relative between fluorochromes [1] |
| --- | --- | --- |
| IQSPHFF | 98 | – |
| Cy5.5 | – | approximately four-fold less biding than VT680 |
